{"source": "patent US20080045584A1", "about": "“Use of Docetaxel for Treating Hepatocellular Carcinoma” (priority 1999, published 2008)", "key": {"[1]": {"test_system": "Hep 3B cells", "settings": "0.01 μM, 72 hours", "procedure": "(§1) The experiments detailed below involve human hepatoma cell lines Hep3B (ATCC designation HB 8064), HepG2 (ATCC designation HB 8065) and HA22T/VGH, and murine hepatoma cell line Hepa 1-6. These cells were cultured in DMEM (GIBCO, BRL) containing 10% fetal bovine serum (Hyclone), 0.01 mg/ml gentamycin and 0.1 mM non-essential amino acid. Cells were grown in a CO2 incubator at 37° C., with 5% CO2 and 95% filtered air.\n(§2) In the experiments detailed below the above hepatoma cells were treated with different concentrations of paclitaxel (0.001-10 μM) and docetaxel (0.001-10 μM) for 24 hours and 72 hours. Paclitaxel was dissolved in dimethylsulfoxide (DMSO) and docetaxel was dissolved in ethanol as stock solutions. The final concentration of vehicle was less than 0.1%.\n(§3) Cells were cultured in a 96 well cell culture cluster (COSTAR) at a density of 4×10^4 cells/ml. After drug treatment for 24 hours or 72 hours, medium was discarded and replaced with an equal volume (100 μl) of fresh medium containing MTT (0.456 mg/ml; 3-[4,5-Dimethylthiazol-2-yl]2,5-diphenyl-tetrazolium bromide) and incubated for 1.5 hours at 37° C. The fresh medium was then discarded, and 100 μl DMSO was then added. Cell viability was determined by colorimetric comparison by reading OD values from a microplate reader (SPECTRA MAX250) at an absorption wavelength of 570 nm.\n(§4) Data are the mean i standard error of mean from duplicate samples of three independent experiments."}, "[2]": {"test_system": "Hepa 1-6 cells", "settings": "Hepa 1-6, 1 μM", "procedure": "as §1, §2, §3, §4"}, "[3]": {"test_system": "hepatoma cell lines (Hep G2, Hep 3B, HA22T/VGH and Hepa 1-6)", "experiment": "Cell viability study: MTT assay, all lines (FIG. 1)", "format": "cell-based"}, "[4]": {"test_system": "Hepa 1-6 cells", "experiment": "Flow cytometric analysis of DNA content (cell cycle, sub-G0/G1)", "format": "cell-based, murine", "procedure": "Lysing buffer (0.5% Triton X-100, 0.2 μg/ml Na2EDTA.2H2O, and 1% bovine serum albumin in PBS) was added to the cell pellets which were then left on ice for 15 minutes. 100% methanol pre-cooled to −20° C. was then added to the mixture, which was then centrifuged at 300×g for 5 minutes. The supernatant was discarded and the cell pellet was washed with PBS. The washed pellet was stained with a DNA staining solution (50 μg/ml propidium iodide, and 5 kunitz/ml of RNase A) for 30 minutes at 4° C. in the dark. The DNA content of each cell was measured using a Becton Dickinson FACS Calibur flow cytometer as set out below.\n(§5) Cells (10000) were analyzed on a Becton Dickinson FACS Calibur flow cytometer using an argon-ion laser (15 mWatt) with incident beam at 488 nm. For PI exclusion assay, red fluorescence was collected through a 585 nm filter and the cell debris signals were removed by FSC-SSC gating. Data were acquired and analyzed using FACS/CELL Quest software on a Power Macintosh 7600/120 computer. Apoptotic cells and cells at specific cycle phases were determined by ModFit LT software.\nTable 1 gives figures for cell membrane permeability of the hepatoma cells, following treatment with paclitaxel and docetaxel. Table 2 details the percentage of apoptotic (sub-G0/G1) cells found after paclitaxel and docetaxel treatment."}, "[5]": {"test_system": "Hep 3B cells", "experiment": "Propidium iodide (PI) exclusion assay, flow cytometry", "format": "cell-based, human", "procedure": "(§6) Cells were grown on 5-cm^2 flasks (CORNING) and treated with paclitaxel and docetaxel as set out above. Propidium iodide (10 μg/ml) was then added for 15 minutes incubation at 37° C. Then, medium was collected prior to harvest of the adherent cells. Both suspended and attached cells were collected and resuspended with 500 μl PBS for flow cytometry analysis as set out below. Debris signals were removed by FSC-SSC gating.\nas §5\n(§7) Data are mean±standard error of mean from duplicated sample of at least three independent experiments. Cells were treated with drugs for 24-72 hours, and membrane permeability was measured by flowcytometric analysis of propidium exclusion in viable hepatoma cells. Data are the percentage of cells with intact cell membrane as compared to control"}, "[6]": {"test_system": "HA22T/VGH cells", "experiment": "Propidium iodide (PI) exclusion assay, flow cytometry", "format": "cell-based, human", "procedure": "as §6, §5, §7"}, "[7]": {"test_system": "Hep G2 cells", "experiment": "Propidium iodide (PI) exclusion assay, flow cytometry", "format": "cell-based, human", "procedure": "as §6, §5, §7"}, "[8]": {"test_system": "Hep G2 cells", "experiment": "DNA fragmentation electrophoresis analysis", "format": "cell-based, human", "settings": "Hep G2, 0.1 and 1 μM, 72 hours", "procedure": "DNA fragmentation assessment was according to the method Herrmann et al, Nucleic Acids Res., 22, 5506-5507, 1994.\nBriefly, HEP G2 cells (2×10^7) were treated for 72 hours with paclitaxel and docetaxel as set out above and centrifuged. The thus obtained cell pellets were resuspended with NP-40 lysis buffer (1% NP-40 in 20 mM EDTA, 50 mM Tris-HCl, pH 7.5). After lysis of cells for a few seconds, the supernatants were collected (5 minutes at 1600×g). The extraction was repeated with the same lysis buffer. SDS (final concentration 1%) and RNase were added (final concentration 2.5 μg/μl) to supernatants and incubated for 2 hours at 56° C. followed by digestion with proteinase K (2.5 μg/μl) for 2 hours at 37° C. Then, the mixtures were added to 10 M ammonium acetate prior to 100% ethanol precipitation for 30 minutes at −20° C. The DNA was collected by centrifugation (10 min at 12000 ×g) followed by electrophoresis on 1.5% agarose gel.\nIn FIG. 3, M is a 100 base pair marker. […] Lanes 2 and 3 show mean paclitaxel (0.1 and 1 μM) treatment groups. Lanes 4 and 5 show mean docetaxel (0.1 and 1 μM) treatment groups."}, "[9]": {"test_system": "Hep G2 cells", "experiment": "Cell viability study: MTT assay", "format": "cell-based, human", "settings": "for viability: Hep G2, 1 μM"}}, "note": "Where two headings read alike, the source gives them in different places."}
{"smiles": "CC(=O)O[C@@]12CO[C@@H]1C[C@H](O)[C@@]1(C)C(=O)[C@H](O)C3=C(C)[C@@H](OC(=O)[C@H](O)[C@@H](NC(=O)OC(C)(C)C)c4ccccc4)C[C@@](O)([C@@H](OC(=O)c4ccccc4)[C@H]21)C3(C)C", "note": "[Docetaxel]", "values": [{"measurement": "reduction of viability", "setting": "[1]", "value": 37.06, "unit": "%"}, {"measurement": "maximum cytotoxicity", "setting": "[2]; 24 hours", "value": 65.34, "unit": "%"}, {"measurement": "maximum cytotoxicity", "setting": "[2]; 72 hours", "value": 30.71, "unit": "%"}, {"measurement": "cell viability compared with paclitaxel (FIG. 1)", "setting": "[3]; 0.01 and 0.1 μM, in nearly every case", "value": "decreased viability"}, {"measurement": "in vitro activity against HCC cells compared with paclitaxel", "setting": "[3]; concentrations of up to 1 μM", "value": "significantly higher"}, {"measurement": "% of apoptotic (sub-G0/G1) cells", "setting": "[4]; Hepa 1-6, 24 hrs, 0.01 mM (text: μM)", "value": 52.81, "unit": "%"}, {"measurement": "% of apoptotic (sub-G0/G1) cells", "setting": "[4]; Hepa 1-6, 24 hrs, 0.1 mM (text: μM)", "value": 50.76, "unit": "%"}, {"measurement": "% of apoptotic (sub-G0/G1) cells", "setting": "[4]; Hepa 1-6, 24 hrs, 1 mM (text: μM)", "value": 53.8, "unit": "%"}, {"measurement": "% of apoptotic (sub-G0/G1) cells", "setting": "[4]; Hepa 1-6, 72 hrs, 0.01 mM (text: μM)", "value": 31.25, "unit": "%"}, {"measurement": "% of apoptotic (sub-G0/G1) cells", "setting": "[4]; Hepa 1-6, 72 hrs, 0.1 mM (text: μM)", "value": 53.95, "unit": "%"}, {"measurement": "% of apoptotic (sub-G0/G1) cells", "setting": "[4]; Hepa 1-6, 72 hrs, 1 mM (text: μM)", "value": 62.49, "unit": "%"}, {"measurement": "percentage of cells with intact cell membrane as compared to control", "setting": "[5]; 24 hrs, 0.01 μM", "value": "93.80 ± 10.7", "unit": "%"}, {"measurement": "percentage of cells with intact cell membrane as compared to control", "setting": "[5]; 24 hrs, 0.1 μM", "value": "57.41 ± 6.8", "unit": "%"}, {"measurement": "percentage of cells with intact cell membrane as compared to control", "setting": "[5]; 24 hrs, 1 μM", "value": "57.39 ± 4.3", "unit": "%"}, {"measurement": "percentage of cells with intact cell membrane as compared to control", "setting": "[5]; 72 hrs, 0.01 μM", "value": "36.81 ± 14.7", "unit": "%"}, {"measurement": "percentage of cells with intact cell membrane as compared to control", "setting": "[5]; 72 hrs, 0.1 μM", "value": "36.25 ± 13.5", "unit": "%"}, {"measurement": "percentage of cells with intact cell membrane as compared to control", "setting": "[5]; 72 hrs, 1 μM", "value": "20.25 ± 14.4", "unit": "%"}, {"measurement": "percentage of cells with intact cell membrane as compared to control", "setting": "[6]; 24 hrs, 0.01 μM", "value": "98.66 ± 9.0", "unit": "%"}, {"measurement": "percentage of cells with intact cell membrane as compared to control", "setting": "[6]; 24 hrs, 0.1 μM", "value": "38.71 ± 11.2", "unit": "%"}, {"measurement": "percentage of cells with intact cell membrane as compared to control", "setting": "[6]; 24 hrs, 1 μM", "value": "40.79 ± 5.0", "unit": "%"}, {"measurement": "percentage of cells with intact cell membrane as compared to control", "setting": "[6]; 72 hrs, 0.01 μM", "value": "55.44 ± 5.6", "unit": "%"}, {"measurement": "percentage of cells with intact cell membrane as compared to control", "setting": "[6]; 72 hrs, 0.01 μM, listed as docetaxel", "value": 55.44, "unit": "%"}, {"measurement": "percentage of cells with intact cell membrane as compared to control", "setting": "[6]; 72 hrs, 0.1 μM", "value": "21.24 ± 0.4", "unit": "%"}, {"measurement": "percentage of cells with intact cell membrane as compared to control", "setting": "[6]; 72 hrs, 1 μM", "value": "22.03 ± 3.1", "unit": "%"}, {"measurement": "percentage of cells with intact cell membrane as compared to control", "setting": "[7]; Hep G2, 24 hrs, 0.01 μM", "value": "94.86 ± 1.3", "unit": "%"}, {"measurement": "percentage of cells with intact cell membrane as compared to control", "setting": "[7]; Hep G2, 24 hrs, 0.1 μM", "value": "85.49 ± 1.2", "unit": "%"}, {"measurement": "percentage of cells with intact cell membrane as compared to control", "setting": "[7]; Hep G2, 24 hrs, 1 μM", "value": "81.24 ± 3.2", "unit": "%"}, {"measurement": "percentage of cells with intact cell membrane as compared to control", "setting": "[7]; Hep G2, 72 hrs, 0.01 μM", "value": "61.06 ± 9.6", "unit": "%"}, {"measurement": "percentage of cells with intact cell membrane as compared to control", "setting": "[7]; Hep G2, 72 hrs, 0.1 μM", "value": "40.03 ± 9.0", "unit": "%"}, {"measurement": "percentage of cells with intact cell membrane as compared to control", "setting": "[7]; Hep G2, 72 hrs, 1 μM", "value": "27.42 ± 8.8", "unit": "%"}, {"measurement": "DNA fragmentation (agarose gel, FIG. 3)", "setting": "[8]", "value": "induced DNA fragmentation"}, {"measurement": "viability", "setting": "[9]; 24 hours", "value": 65.03, "unit": "%"}, {"measurement": "viability", "setting": "[9]; 72 hours", "value": 48.99, "unit": "%"}, {"measurement": "viability at 10 μM compared with 1 μM", "setting": "[9]; Hep G2, 10 μM, maximal reduction observed at 1 μM", "value": "no further decrease in viability"}]}
